Experimental data as given in patent US20220143045A1, “PROGESTERONE RECEPTOR ANTAGONIST DOSAGE FORM” (BAYER PHARMA AKTIENGESELLSCHAFT, priority 2013, published 2022).
“And” between values parts separate entries of the source, which are not always exact repeats. Equal values may be shown once.

Columns and labels:
Assay type in all cases: in vivo, human
healthy female subjects [1] = experiment: Dose-effect of 84 days treatment: bleeding pattern (non-bleeding rate), daily self-assessment
Text: • 1. Healthy female subjects, sterilized by tubal ligation • 2. Age at screening: 18-45 years • 3. Body mass index (BMI) at screening: ≥18 and ≤32 kg/m^2 • 4. At least 3 consecutive regular menstrual cycles with a cycle length of 24-35 days before first screening examination according to the subject's history • 5. Absence of clinically relevant abnormal findings in the pre-treatment endometrial biopsy • 6. Adequate venous access (frequent blood sampling)
The subject had to start the intake of the study drugs on the first or second day of menstrual bleeding after the pre-treatment cycle. The pre-treatment cycle started on the first day of the subject's menstrual bleeding after screening examinations had shown that the subject was eligible for further participation. After the pre-treatments cycle treatment was started. The treatment period started with the first and ended with the last intake of compound 1. For each intake day the subject received one bottle containing 4 tablets. The number of tablets taken and the intake time had to be documented in the diary.
The evaluation of bleeding pattern was based on a daily self-assessment of the bleeding intensity by the subject. These assessments were categorized as defined below. The subjects were provided with an explanation of the categories in local language, and were asked to document the bleeding intensity in their diaries accordingly (one entry per day).
Administration of compound 1 occurred during 84 days (multiple doses administration).

healthy female subjects [2] = experiment: Return of bleeding after end of treatment (84 days); details: for Number of days until first bleeding after end of treatment (mean ± SD) / Number of days until first bleeding after end of treatment (min − max): PPS
Text: (§1) As described in example 2.
The first day of bleeding after the end of the treatment was marked.

healthy female subjects [3] = experiment: Endometrial thickness by transvaginal ultrasound during treatment; details: 2 mg, 84 days, versus other dosages (FIG. 2)
Procedure: as §1
The endometrial thickness was measured in the medio-sagittal section as double-layer in millimeters using transvaginal ultrasound.

healthy female subjects [4] = experiment: Ovulation inhibition: follicle size, estradiol (E2), progesterone (P)
Text: Protocol: Randomized Study population of healthy female subjects as described in example 2 above.
Blood samples were obtained from healthy female subjects for the determination of Estradiol (E2), Progesterone (P), luteinizing hormone (LH) and follicle stimulating hormone (FSH) in serum and taken at the same time points as listed below during the pre-treatment cycle, the treatment and follow-up cycle. Transvaginal ultrasound (TVU) was used to monitor ovarian follicular growth during pretreatment (days 9 and 21), treatment (days 7, 14, 21, 28, 35, 42, 49, 56, 63, 70, 77, 84) and follow-up cycle (days 9 and 21).

[5] = 0.5 mg once daily per os, 84 days
[6] = 0.1 mg, n = 11, treatment period
[7] = 0.1 mg, n = 11, treatment period, (third category)
[8] = 0.5 mg, n = 11, treatment period
[9] = 0.5 mg, n = 11, treatment period, (third category)
[10] = 1 mg, n = 12, treatment period, (third category)
[11] = 2 mg, n = 12, treatment period, (third category)
[12] = 5 mg, n = 11, treatment period, (third category)

C[C@]12C[C@H](c3ccc(S(C)(=O)=O)cc3)C3=C4CCC(=O)C=C4CC[C@H]3[C@@H]1CC[C@@]2(O)C(F)(F)C(F)(F)F [compound 1, (11β,17β)-17-Hydroxy-11-[4-(methylsulphonyl)phenyl]-17-(pentafluoroethyl)estra-4,9-dien-3-one]
number of subjects with no further bleeding during the treatment period (out of 11) (healthy female subjects [1]; [5]): 3 | subjects with no further bleeding during the treatment period (healthy female subjects [1]; [5]): 27% | number of days of bleeding during the treatment period (healthy female subjects [1]; 0.1-5 mg once daily per os, 84 days): marked and dose-dependent reduction | dosage at which 50% of dose-dependent reduction of bleeding is observed (healthy female subjects [1]; 84 days treatment, posterior of non-bleeding rate (FIG. 1)): 0.7 mg | saturation of non-bleeding rate (healthy female subjects [1]; from 2 mg up to 5 mg, 84 days): around 95% | amenorrhea (non-bleeding) (healthy female subjects [1]; healthy subjects, dosage of 2 mg): 92.5% | Number of days until first bleeding after end of treatment (mean ± SD) (healthy female subjects [2]; 0.1 mg, n = 11): 12.2 ± 9.9 days | Number of days until first bleeding after end of treatment (min − max) (healthy female subjects [2]; 0.1 mg, n = 11): (3 − 35) days | Number of days until first bleeding after end of treatment (mean ± SD) (healthy female subjects [2]; 0.5 mg, n = 11): 14.8 ± 10.2 days | Number of days until first bleeding after end of treatment (min − max) (healthy female subjects [2]; 0.5 mg, n = 11): ( 1 − 28) days | Number of days until first bleeding after end of treatment (mean ± SD) (healthy female subjects [2]; 1 mg, n = 10): 20.3 ± 6.2 days | Number of days until first bleeding after end of treatment (min − max) (healthy female subjects [2]; 1 mg, n = 10): (8 − 28) days | Number of days until first bleeding after end of treatment (mean ± SD) (healthy female subjects [2]; 2 mg, n = 12): 25 days and 25.8 ± 11.1 days | Number of days until first bleeding after end of treatment (min − max) (healthy female subjects [2]; 2 mg, n = 12): (9 − 52) days | delayed return of bleeding after treatment, one subject (healthy female subjects [2]; 2 mg, single subject): about 52 days | Number of days until first bleeding after end of treatment (mean ± SD) (healthy female subjects [2]; 5 mg, n = 11): 20.9 ± 10.9 days | Number of days until first bleeding after end of treatment (min − max) (healthy female subjects [2]; 5 mg, n = 11): (1 − 38) days | maximum thickness of the endometrium within treatment epoch (healthy female subjects [3]): lower maximum thickness of the endometrium compared to other dosages | number of subjects with Follicle size ≤ 13 mm (healthy female subjects [4]; [6]): 1 | percentage of subjects with Follicle size ≤ 13 mm (healthy female subjects [4]; [6]): 9% | number of subjects with Follicle size > 13 mm + Estradiol > 27.2 pg/mL + Progesterone < 1.57 μg/L (healthy female subjects [4]; [7]): 10 | percentage of subjects with Follicle size > 13 mm + Estradiol > 27.2 pg/mL + Progesterone < 1.57 μg/L (healthy female subjects [4]; [7]): 91% | number of subjects with Follicle size > 13 mm + Estradiol > 27.2 pg/mL + Progesterone < 1.57 μg/L (healthy female subjects [4]; [8]): 6 | percentage of subjects with Follicle size > 13 mm + Estradiol > 27.2 pg/mL + Progesterone < 1.57 μg/L (healthy female subjects [4]; [8]): 55% | number of subjects with Follicle size > 13 mm + Estradiol > 27.2 pg/mL + Progesterone < 1.57 μg/L (healthy female subjects [4]; [9]): 5 | percentage of subjects with Follicle size > 13 mm + Estradiol > 27.2 pg/mL + Progesterone < 1.57 μg/L (healthy female subjects [4]; [9]): 45% | number of subjects with Follicle size > 13 mm + Estradiol > 27.2 pg/mL + Progesterone < 1.57 μg/L (healthy female subjects [4]; 1 mg, n = 12, treatment period): 9 | number of subjects with Follicle size ≤ 13 mm (healthy female subjects [4]; 1 mg, n = 12, treatment period): 1 | percentage of subjects with Follicle size > 13 mm + Estradiol > 27.2 pg/mL + Progesterone < 1.57 μg/L (healthy female subjects [4]; 1 mg, n = 12, treatment period): 75% | percentage of subjects with Follicle size ≤ 13 mm (healthy female subjects [4]; 1 mg, n = 12, treatment period): 8% | number of subjects with Follicle size > 13 mm + Estradiol > 27.2 pg/mL + Progesterone < 1.57 μg/L (healthy female subjects [4]; [10]): 2 | percentage of subjects with Follicle size > 13 mm + Estradiol > 27.2 pg/mL + Progesterone < 1.57 μg/L (healthy female subjects [4]; [10]): 17% | number of subjects with Follicle size > 13 mm + Estradiol > 27.2 pg/mL + Progesterone < 1.57 μg/L (healthy female subjects [4]; 2 mg, n = 12, treatment period): 11 | percentage of subjects with Follicle size > 13 mm + Estradiol > 27.2 pg/mL + Progesterone < 1.57 μg/L (healthy female subjects [4]; 2 mg, n = 12, treatment period): 92% | number of subjects with Follicle size > 13 mm + Estradiol > 27.2 pg/mL + Progesterone < 1.57 μg/L (healthy female subjects [4]; [11]): 1 | percentage of subjects with Follicle size > 13 mm + Estradiol > 27.2 pg/mL + Progesterone < 1.57 μg/L (healthy female subjects [4]; [11]): 8% | number of subjects with Follicle size > 13 mm + Estradiol > 27.2 pg/mL + Progesterone < 1.57 μg/L (healthy female subjects [4]; 5 mg, n = 11, treatment period): 9 | number of subjects with Follicle size ≤ 13 mm (healthy female subjects [4]; 5 mg, n = 11, treatment period): 1 | percentage of subjects with Follicle size > 13 mm + Estradiol > 27.2 pg/mL + Progesterone < 1.57 μg/L (healthy female subjects [4]; 5 mg, n = 11, treatment period): 82% | percentage of subjects with Follicle size ≤ 13 mm (healthy female subjects [4]; 5 mg, n = 11, treatment period): 9% | number of subjects with Follicle size > 13 mm + Estradiol > 27.2 pg/mL + Progesterone < 1.57 μg/L (healthy female subjects [4]; [12]): 1 | percentage of subjects with Follicle size > 13 mm + Estradiol > 27.2 pg/mL + Progesterone < 1.57 μg/L (healthy female subjects [4]; [12]): 9% | ovulation during treatment (progesterone value <1.57 μg/L) (healthy female subjects [4]; dosages ≥0.5 mg, 84 days): No ovulation occurred in most of the subjects
